Experimental data reported in patent US4492698A, “Diphenylbutyl-1-acylpiperazines” (priority 1980, dated 1985).
Where a name gives a salt, the structure may show the parent alone. Read-outs that look alike come from different tables or passages of the source.

How the values were obtained:
male NMRI mice [1] = assay: isolation-induced aggressive behaviour; format: in vivo; settings: Mus musculus, sc, read-out: ED50 (dose inhibiting aggressive behaviour among 50 percent of the pairs)
From the text: Male mice subjected to prolonged isolation develop aggressive behaviour against each other when paired (Yen, C. Y. et al., Arch. Int. Pharmacodyn. 123, 179, (1959); Valzelli, L., Adv. Pharmacol. 5, 79 (1967)). […] The clinical correlation of this test indicates tranquillizing and anxiolytic activities as well as antiaggressive properties as such (Duncan, R. L. et al., J. Med. Chem. 13, 1 (1970)).
This type of aggression is interesting because it is known that this kind of emotional behaviour might be located in limbic structures in the brain (MacLean, P. D., Psychosom. Med. 11, 338 (1949)).
Every week male NMRI mice, weighing 20-22 g, were isolated in Makrolon cages for three weeks with diet and water ad libitum. A piece of cardboard was placed between the cages to prevent visual contact.
To test aggressiveness the mice were paired in a neutral area, a beaker (14 cm high and diameter 14 cm). A pair is considered aggressive if both the animals show clear signs of fighting within 5 min. This fighting is characterized by biting and vocalization. As soon as fighting is seen, the mice are separated and brought to their home cage. […] Animals showing no aggression are discarded. […] The test substance is administered s.c. (0.2-0.4 ml/20 g). The mice are paired 0.5 h after the injection for trials of 5 min. duration.
The ED50 -value (mg/kg) reported is the dose inhibiting aggressive behaviour among 50 percent of the pairs 0.5 hour after drug administration.

[2] = test system: male hooded Long-Evans rats; assay: spontaneous mouse-killing (muricide) by rats; format: in vivo, rat (hooded Long-Evans); settings: for ED50: Rattus norvegicus, sc
From the text: For the purpose of detecting new psychotropic substances with antiaggressive properties, pharmacologist have used several different models. One model used, the mouse-killing (muricide) by rats (Vogel, J. R. in Industrial Pharmacology, Vol. 2, Antidepressants, Stuart, F. and Lal, H., Ed., Futura Publishing Company, 1975, p. 99), is based on an existing interspecies aggression (Karli, P., Behaviour 10, 81 (1956)). This form of aggressive behaviour which is considered to be of predatory nature, is physiologically and topographically different from other forms of aggression (O'Boyle, M., Psychol. Bull. 81, 261 (1974)). Mousekilling is a spontaneous behaviour in some rat strains e.g. male hooded Long-Evans rats.
Male hooded Long-Evans rats placed in individual cages were used. By testing a number of rats, a colony of rats was obtained that killed a mouse whenever introduced into the rats' cage, by biting the mouse through the cervical spinal cord.
Each rat was tested for mouse-killing behaviour (killing a mouse within 5 minutes) prior to each experiment, thus serving as its own positive control. For each dose level 6 positive rats were selected and the test substance was administered by subcutaneous injection. Doses were selected to form a dose-response curve and the […] (ED50, mg/kg) was calculated by means of linear regression. The rats were tested at 1, and 2 hours after being injected subcutaneously. [drawing 9]

mice (NMRI) = assay: writhing test (acetic acid), analgetic properties; format: in vivo; settings: Mus musculus, sc, 20 min before acetic acid i.p.; female mice; read-out: ED50 (dose blocking the writhing behaviour in 50% of the animals)
Description: The writhing test is a frequently used test of analgetic properties (Witkin, L. B. et al., J. Pharmacol. Exp. Ther. 133, 400 (1961)). If acetic acid (0.5%, 15 ml/kg) is injected intraperitoneally in mice (NMRI) they will without exception develop a writhing behaviour characterized by stretching their hind legs. The drugs to be tested were administered subcutaneously to 6 female mice at each dose 20 min. before the injection of the acetic acid. After 10 min. The behaviour of the mice was studied in 5 min. The ED50 value is the dose blocking the writhing behaviour in 50% of the animals during the 5 min. study period.

male NMRI mice [3] = settings: general statement on the test; cited from earlier work
[4] = 0.5 hour after drug administration
[5] = 1 hr after injection, read-out: ED50, spontaneous mouse-killing, 1 hr
[6] = read-out: ED50, spontaneous mouse-killing, s.c., 2 hr after injection

## CN(C)CCC=C1c2ccccc2CCc2ccccc21 [Amitriptyline]
Male NMRI mice [1]; [4]
  ED50: 5 mg/kg
[2]; [5]
  ED50: > 10 mg/kg
[2]; [6]
  ED50: 6.4 mg/kg

## CC(=O)N1CCN(CCCC(c2ccc(F)cc2)c2ccc(F)cc2)CC1 [B, 1-acetyl-4-[4,4-(di-fluorophenyl)butyl]piperazine]
Male NMRI mice [1]; [4]
  ED50: 10 mg/kg
[2]; [5]
  ED50: > 10 mg/kg
[2]; [6]
  ED50: > 10 mg/kg
[2]; versus compounds I of the invention, in the tests of the application
  pharmacological properties compared with compounds I: inferior to the compounds I of the present invention

## CN(C)CCCN1c2ccccc2Sc2ccc(Cl)cc21 [Chlorpromazine]
Male NMRI mice [1]; 0.5 h
  ED50: 1.4 mg/kg

## CCC(=O)N1CCN(CCCC(c2ccc(F)cc2)c2ccc(F)cc2)CC1 [Compound 1, 1-Ethylcarbonyl-4-[4,4-(di-p-fluorophenyl)butyl]-piperazine hydrochloride]
Mice (NMRI)
  ED50: 0.5 mg/kg
Male NMRI mice [1]; [4]
  ED50: 2.8 mg/kg
[2]; [5]
  ED50: 1 mg/kg
[2]; [6]
  ED50: 1.8 mg/kg

## CC(C)C(=O)N1CCN(CCCC(c2ccc(F)cc2)c2ccc(F)cc2)CC1 [Compound 2]
Mice (NMRI)
  ED50: 1.1 mg/kg

## O=C(C1CC1)N1CCN(CCCC(c2ccc(F)cc2)c2ccc(F)cc2)CC1 [Compound 3]
Mice (NMRI)
  ED50: 0.8 mg/kg
Male NMRI mice [1]; [4]
  ED50: 1.4 mg/kg
[2]; [5]
  ED50: 2.6 mg/kg
[2]; [6]
  ED50: 3.7 mg/kg

## CCC(=O)N1CC(C)N(CCC(c2ccccc2)c2ccccc2)CC1C (stereo not shown) [Compound A1]
Mice (NMRI)
  ED50: 4.2 mg/kg

## CN1C(=O)CN=C(c2ccccc2)c2cc(Cl)ccc21 [Diazepam]
Male NMRI mice [3]
  activity on isolation-induced aggressive behaviour: active
